The supplement of paper PMC13380429

Tests used:
Settings in all cases: 72 h
HepG2 [1] = test: relative viability EC50 (midpoint between 100% and the lowest measured viability); higher = less toxic
Caco-2 [2] = test: as above
U2OS [3] = test: as above
HepG2 [4] = test: cell viability relative to DMSO; higher = less toxic
Caco-2 [5] = test: as above
U2OS [6] = test: as above
Calu-3 [7] = test: as above
Vero E6 [8] = test: as above
HepG2 [9] = test: drug sensitivity score (DSS) for viability; higher = more toxic; extreme values may be limits of the assay
Caco-2 [10] = test: as above
U2OS [11] = test: as above
Calu-3 [12] = test: as above
Vero E6 [13] = test: as above
Vero E6 [14] = test: relative viability EC50 (midpoint between 100% and the lowest measured viability); higher = less toxic

Row | Compound | relative viability EC50 (HepG2 [1]) [µM] | relative viability EC50 (Caco-2 [2]) [µM] | relative viability EC50 (U2OS [3]) [µM] | cell viability (HepG2 [4]; 1 nM) [%] | cell viability (HepG2 [4]; 10 nM) [%] | cell viability (HepG2 [4]; 100 nM) [%] | cell viability (HepG2 [4]; 1000 nM) [%] | cell viability (HepG2 [4]; 10000 nM) [%] | cell viability (Caco-2 [5]; 1 nM) [%] | cell viability (Caco-2 [5]; 10 nM) [%] | cell viability (Caco-2 [5]; 100 nM) [%] | cell viability (Caco-2 [5]; 1000 nM) [%] | cell viability (Caco-2 [5]; 10000 nM) [%] | cell viability (U2OS [6]; 1 nM) [%] | cell viability (U2OS [6]; 10 nM) [%] | cell viability (U2OS [6]; 100 nM) [%] | cell viability (U2OS [6]; 1000 nM) [%] | cell viability (U2OS [6]; 10000 nM) [%] | cell viability (Calu-3 [7]; 1 nM) [%] | cell viability (Calu-3 [7]; 10 nM) [%] | cell viability (Calu-3 [7]; 100 nM) [%] | cell viability (Calu-3 [7]; 1000 nM) [%] | cell viability (Calu-3 [7]; 10000 nM) [%] | cell viability (Vero E6 [8]; 1 nM) [%] | cell viability (Vero E6 [8]; 10 nM) [%] | cell viability (Vero E6 [8]; 100 nM) [%] | cell viability (Vero E6 [8]; 1000 nM) [%] | cell viability (Vero E6 [8]; 10000 nM) [%] | drug sensitivity score (HepG2 [9]) | drug sensitivity score (Caco-2 [10]) | drug sensitivity score (U2OS [11]) | drug sensitivity score (Calu-3 [12]) | drug sensitivity score (Vero E6 [13]) | relative viability EC50 (Vero E6 [14]) [µM]
1 | COc1ccc(-n2c(SCCCN3C(=O)c4cccc5cccc(c45)C3=O)nnc2-c2ccncc2)cc1 [WIKI4] | > 10 | > 10 | > 10 | 96.3 | 97.6 | 93.4 | 107 | 100 | 90.5 | 109 | 96 | 87 | 95.6 | 100 | 109 | 98.6 | 95.7 | 87.3 | 96.2 | 103 | 92.8 | 75 | 71.3 | 97.8 | 101 | 97.9 | 91.8 | 66.8 | 0 | 1.1 | 0.2 | 4.7 | 2.8 | 
2 | c1ccc(NCc2ccc(CNc3ccccn3)cc2)nc1 [WZ811] | > 10 | > 10 | > 10 | 98.6 | 101 | 98.7 | 106 | 111 | 97.9 | 105 | 103 | 95.5 | 100 | 96.8 | 96.1 | 99.8 | 96.7 | 97.9 |  |  |  |  |  | 93.5 | 95.5 | 94.2 | 101 | 103 | 0 | 0 | 0 |  | 0 | > 10
3 | CCNC(=O)[C@@H]1CCCN1C(=O)[C@H](CCCNC(=N)N)NC(=O)[C@H](CC(C)C)NC(=O)[C@@H](C)NC(=O)[C@H](Cc1ccc(O)cc1)NC(=O)[C@H](CO)NC(=O)[C@H](Cc1c[nH]c2ccccc12)NC(=O)[C@H](Cc1cnc[nH]1)NC(=O)[C@@H]1CCC(=O)N1 [alarelin] | > 10 | > 10 |  | 97.8 | 103 | 101 | 92 | 93.7 | 116 | 100 | 86.3 | 118 | 102 |  |  |  |  |  |  |  |  |  |  | 109 | 106 | 104 | 96.9 | 102 | 0 | 0 |  |  | 0 | > 10
4 | CC1(C)S[C@@H]2[C@H](NC(=O)[C@H](N)c3ccccc3)C(=O)N2[C@H]1C(=O)O [ampicillin] |  |  |  |  |  |  |  |  |  |  |  |  |  |  |  |  |  |  |  |  |  |  |  |  |  |  |  |  | 0 |  | 0 | 0 | 0 | 
5 | CC(=O)OCC(=O)[C@@]1(O)[C@@H](C)C[C@H]2[C@@H]3CCC4=CC(=O)C=C[C@]4(C)[C@@]3(F)[C@@H](O)C[C@@]21C [betamethasone-acetate] |  |  |  |  |  |  |  |  |  |  |  |  |  |  |  |  |  |  |  |  |  |  |  |  |  |  |  |  | 0 |  | 0 | 0 | 0 | 
6 | Cc1nc2ccccc2n1Cc1ccc(Cl)cc1 [chlormidazole] | 2.3 | > 10 | > 10 | 92.3 | 95.4 | 109 | 92.1 | 25.1 | 103 | 101 | 109 | 83.1 | 77.8 | 99.2 | 95.9 | 98.8 | 96.9 | 95.8 |  |  |  |  |  | 96.7 | 107 | 104 | 107 | 85.9 | 5.4 | 2.4 | 0 |  | 0.1 | > 10
7 | Nc1nc(Cl)nc2c1ncn2[C@@H]1O[C@H](CO)[C@@H](O)[C@@H]1F [clofarabine] | 0.192 |  |  | 94.1 | 100 | 89.2 | 33.3 | 39.3 | 90.2 | 102 | 88.8 | 85.9 | 71.5 | 99.9 | 101 | 105 | 79.7 | 65.5 | 91.4 | 106 | 96.2 | 64.8 | 54.6 | 96.2 | 91.5 | 96.6 | 87.8 | 55.9 | 14.1 | 2.8 | 4 | 6.8 | 4 | 
8 | COc1cc2c(c(OC)c1OC)-c1ccc(OC)c(=O)cc1[C@@H](NC(C)=O)CC2 [colchicine] | 0.0241 | 0.0419 | 0.0407 | 104 | 91.2 | 38 | 34.8 | 39.7 | 97.2 | 103 | 45.8 | 46.1 | 41.1 | 104 | 103 | 25.3 | 20 | 19.2 |  |  |  |  |  | 101 | 101 | 96.9 | 31.1 | 28.5 | 21.2 | 17.5 | 23.9 |  | 13.2 | 0.308
9 | C/C=C(/C)C(=O)O[C@H]1[C@H](OC(C)=O)[C@@]2(CO)C(CC1(C)C)C1=CCC3[C@@]4(C)CCC(O[C@@H]5O[C@H](C(=O)O)[C@@H](O[C@@H]6O[C@H](CO)[C@@H](O)[C@H](O)[C@H]6O)[C@H](O)[C@H]5O[C@@H]5O[C@H](CO)[C@@H](O)[C@H](O)[C@H]5O)[C@](C)(CO)C4CC[C@@]3(C)[C@]1(C)C[C@H]2O.C/C=C(\C)C(=O)O[C@H]1[C@H](OC(C)=O)[C@@]2(CO)C(CC1(C)C)C1=CCC3[C@@]4(C)CCC(O[C@@H]5O[C@H](C(=O)O)[C@@H](O[C@@H]6O[C@H](CO)[C@@H](O)[C@H](O)[C@H]6O)[C@H](O)[C@H]5O[C@@H]5O[C@H](CO)[C@@H](O)[C@H](O)[C@H]5O)[C@](C)(CO)C4CC[C@@]3(C)[C@]1(C)C[C@H]2O (some centres undefined) [escin] |  |  |  |  |  |  |  |  |  |  |  |  |  |  |  |  |  |  |  |  |  |  |  |  |  |  |  |  | 3.8 |  | 1.5 | 0 | 4.1 | 
10 | C[C@]12CC[C@@H]3c4ccc(O)cc4CC[C@H]3[C@@H]1CC[C@@H]2O [estradiol] |  |  |  |  |  |  |  |  |  |  |  |  |  |  |  |  |  |  |  |  |  |  |  |  |  |  |  |  | 0 |  | 0 | 0 | 0 | 
11 | c1ccc(CCNc2nc(-c3ccccc3)cs2)cc1 [fanetizole] | > 10 | > 10 | > 10 | 101 | 96.9 | 103 | 94.5 | 100 | 96.4 | 87.3 | 92.3 | 88.9 | 87.3 | 104 | 104 | 104 | 97.7 | 101 |  |  |  |  |  | 98.7 | 99.7 | 101 | 98.4 | 100 | 0 | 0.9 | 0 |  | 0 | > 10
12 | Cc1ccc(S(=O)(=O)NC(=O)NN2CC3CCCC3C2)cc1 (centres undefined) [gliclazide] | > 10 | > 10 | > 10 | 99.1 | 96.1 | 105 | 118 | 108 | 87 | 110 | 100 | 102 | 89 | 92 | 99.3 | 102 | 93.3 | 101 |  |  |  |  |  | 106 | 97 | 101 | 99.2 | 102 | 0 | 0 | 0 |  | 0 | > 10
13 | CN(C)c1ccc2nc3ccc(=[N+](C)C)cc-3sc2c1 [methylene-blue] |  |  |  |  |  |  |  |  |  |  |  |  |  |  |  |  |  |  |  |  |  |  |  |  |  |  |  |  | 9.2 |  | 3 | 6.1 | 5.1 | 
14 | COc1ccccc1OCC(O)CNC(C)C (centres undefined) [moprolol] | > 10 | > 10 | > 10 | 98.3 | 113 | 100 | 98.3 | 103 | 97.7 | 95.4 | 99.6 | 98.2 | 92.7 | 101 | 96.6 | 99.7 | 102 | 103 |  |  |  |  |  | 102 | 99.6 | 105 | 99.5 | 102 | 0 | 0 | 0 |  | 0 | > 10
15 | CCCCCCCCCCCCCCOC(=O)c1cccnc1 [myristyl-nicotinate] | > 10 | > 10 | > 10 | 98.7 | 93.5 | 105 | 99.4 | 102 | 98.2 | 103 | 97.7 | 97.8 | 103 | 101 | 96.7 | 101 | 98.4 | 102 |  |  |  |  |  | 96.6 | 98.2 | 97.6 | 102 | 101 | 0 | 0 | 0 |  | 0 | > 10
16 | O=C(O)C(=O)O.[NH-][C@@H]1CCCC[C@H]1[NH-].[Pt+2] [oxaliplatin] |  |  |  |  |  |  |  |  |  |  |  |  |  |  |  |  |  |  |  |  |  |  |  |  |  |  |  |  | 6 |  | 0.1 | 0 | 4.8 | 
17 | Cc1cccn2c(=O)c(-c3nnn[nH]3)cnc12 [pemirolast] | > 10 | > 10 | > 10 | 102 | 98.2 | 101 | 96.2 | 92.7 | 95.1 | 98.6 | 92.6 | 96.1 | 97.6 | 98.4 | 95.1 | 95.4 | 91.5 | 95.6 |  |  |  |  |  | 89.7 | 88.7 | 88.5 | 96.4 | 93.8 | 0 | 0 | 0 |  | 0 | > 10
18 | O=C(/C=C/c1ccc(O)c2c1[C@H](C(=O)O[C@H](Cc1ccc(O)c(O)c1)C(=O)O)[C@@H](c1ccc(O)c(O)c1)O2)O[C@H](Cc1ccc(O)c(O)c1)C(=O)O [salvianolic-acid-B] | > 10 | > 10 | > 10 | 101 | 86.8 | 107 | 96.3 | 98 | 99.2 | 97.1 | 96.6 | 104 | 101 | 94.4 | 98.2 | 97.5 | 101 | 97.8 |  |  |  |  |  | 96.1 | 92.9 | 95.3 | 91.6 | 103 | 0 | 0 | 0 |  | 0 | > 10
19 | C=C1/C(=C\C=C2/CCC[C@]3(C)[C@@H]([C@H](C)CC[C@@H](O)C(C)C)CC[C@@H]23)C[C@@H](O)C[C@@H]1O [tacalcitol] |  |  |  |  |  |  |  |  |  |  |  |  |  |  |  |  |  |  |  |  |  |  |  |  |  |  |  |  | 0 |  | 0.3 | 0 | 1.9 | 
20 | Clc1ccc2nsnc2c1NC1=NCCN1 [tizanidine] |  |  |  |  |  |  |  |  |  |  |  |  |  |  |  |  |  |  |  |  |  |  |  |  |  |  |  |  | 0 |  | 0 | 0 | 0 | 
